The test system of one assay is MCF7 cells. The assay can be described thus: 14C-acetate incorporation into lipids in MCF7 cells. The format is cell-based, human. As to conditions: Homo sapiens; MCF7 cells, second experiment. How it is done: MCF7 human breast cancer cells (a cell line which overexpresses FAS) were cultured in DMEM containing 5 mM glucose medium with 10% fetal calf serum, 0.01 mg/ml insulin and 1% penicillin/streptomycin. For measurement of fatty acid synthesis cells were cultured in 24-well plates at 5×10^4 per well and incubated overnight. Fatty acid synthesis was assayed by a 2 h pulse of [U^14C]acetate, 1 μCi/well, followed by Folch extraction and scintillation counting. Test compounds were added with the addition of drugs as described. Controls were treated with DMSO alone.
MCF7 human breast cancer cells were cultured in DMEM containing 1 mM or 5 mM glucose in the medium with 10% fetal calf serum, 0.01 mg/ml insulin and 1% penicillin/streptomycin. The cells were grown in two oxygen conditions, normoxia (21% 02) or hypoxia (1% 02). For measurement of fatty acid synthesis cells were cultured in 24-well plates at 5×10^4 per well and incubated overnight. Fatty acid synthesis was assayed by a 2 h pulse of [U^14C]acetate, 1 μCi/well, followed by Folch extraction and scintillation counting with the addition of drugs as described. Controls were treated with DMSO alone.

In assay [1] the test system is SKOV3 human ovarian cancer cells. The assay can be described thus: JC-1 staining, mitochondrial membrane potential in SKOV3 cells. The note with it: SKOV3, drug in DMSO applied 30 min prior to staining. The assay is classed as cell-based. From the text:
JC-1 staining is an indicator of mitochondrial membrane potential; with this assay, mitochondria within cells stained with this fluorescent dye emit a wavelength in the red spectrum when mitochondrial membrane potential is intact. When mitochondria are depolarized, the wavelength of the spectrum emitted changes to green. Therefore, the ratio of red/green fluorescence will give an indication of the intactness of the membrane potential of mitochondria, and thus mitochondrial function.
The left panels show granular red-staining indicating mitochondria with intact membrane potential is brightest in control, and decreases with increasing concentrations of C31. Conversely, the right panels show the diffuse cytoplasmic green-staining which indicates mitochondrial depolarization, is dimmest in control and brightest at the highest concentration of C31 tested. Drug was solubilized in DMSO and applied for 30 min prior to staining.

The subject of assay [2] is MCF7 human breast cancer cells. The assay can be described thus: XTT cytotoxicity assay, MCF7. The assay is classed as cell-based. As to conditions: Homo sapiens, MCF7, XTT, MCF-7; for CC50: read-out: LC50 (the source's name). How it is done:
(§1) Cytotoxicity can be easily measured using XTT assays, which provide an indication of mitochondrial activity. The XTT assay is a non-radioactive alternative for the [^51Cr] release cytotoxicity assay. XTT is a tetrazolium salt that is reduced to a formazan dye only by metabolically active, viable cells. The reduction of XTT is measured spectrophotometrically as OD490-OD650. Thus, cells that are actively metabolizing will form reaction product when subjected to XTT measurement.
(§2) For this experiment, cells were cultured under standard culture conditions. MCF7 human breast cancer cells were cultured in DMEM containing 5 mM glucose medium with 10% fetal calf serum, 0.01 mg/ml insulin and 1% penicillin/streptomycin. To measure the cytotoxicity of specific compounds against cancer cells, 9×10^3 MCF7 cells were plated per well in 96-well plates. Following overnight culture, the compounds, dissolved in DMSO, were added to the wells in 1 μl volume at specified concentrations. Vehicle controls were run for each experiment. Each condition was run in triplicate. After 24 to 72 h of incubation, cells were incubated for 4 hours with the XTT reagent as per manufacturer's instructions (Cell Proliferation Kit II (XTT) Roche Diagnostics, New Jersey). Plates were read at OD490 on a PerkinElmer Victor 1420. Three wells containing the XTT reagent without cells served as the plate blank. XTT data were reported as OD490.
MCF7 human breast cancer cells were cultured in DMEM containing 1 mM or 5 mM glucose in the medium with 10% fetal calf serum, 0.01 mg/ml insulin and 1% penicillin/streptomycin. The cells were grown in two oxygen conditions, normoxia (21% 02) or hypoxia (1% 02). To measure the cytotoxicity of specific compounds against cancer cells, 9×10^3 MCF7 cells were plated per well in 96-well plates. Following overnight culture, the compounds, dissolved in DMSO, were added to the wells in 1 μl volume at specified concentrations. After 24 to 72 h of incubation, cells were incubated for 4 h with the XTT reagent as per manufacturer's instructions (Cell Proliferation Kit II (XTT) Roche Diagnostics, New Jersey). Plates were read at OD490 on a PerkinElmer Victor 1420. Three wells containing the XTT reagent without cells served as the plate blank. XTT data were reported as OD490Vehicle controls were run for each experiment. Each condition was run in triplicate.

For assay [3], the system named is Human ovarian cancer (OVCAR). Put plainly: XTT cytotoxicity assay, OVCAR. The format is cell-based. As to conditions: for CC50: read-out: LC50 (the source's name). How it is done:
(See, e.g., Rothman, S., J Clin. Pathol. 39: 672-676, 1986). For example, to measure the cytotoxicity of a test compound against cancer cells, cells (e.g., SKOV-3 cells or OVCAR-3) are plated in 96-well plates. Following overnight culture, the compound is added to the cells at specified concentrations. After 72 hours of incubation, cells are incubated for 4 hours with the XTT reagent as per manufacturer's instructions (Cell Proliferation Kit II (XTT) Roche Diagnostics, New Jersey), and the amount of color produced by viable cells is measured spectrophotometrically. […] is calculated by linear regression, plotting the color produced in treated cells as percent of control (untreated) cells versus drug concentrations.
as §1, §2
(Tetrazolium assays rely on reduction of a dye to a coloured formazan, in cell work by metabolically active cells.)

In assay [4] the test system is Human colon cancer (HCT116). Put plainly: XTT cytotoxicity assay, HCT116. The note with it: for IC50: HCT-116; for CC50: HCT-116, read-out: LC50 (the source's name). The format is cell-based.
The subject of assay [5] is HCT116 human colon cancer xenograft. The assay can be described thus: tumor xenograft size, HCT116. The format is in vivo, Athymic Nude mice. The note with it: Study 101707, HCT-116, oral b.i.d. 16 days. As for the experimental part:
Xenograft studies were performed using various mmFAS inhibitors disclosed herein. Human cancer xenograft studies are known in the art. (See Pizer et al., Cancer Res. 56:1189-1193, 1996; Pizer et al., Cancer Res. 60: 213-218, 2000; Testa et al., Oncogene 24: 7455-7464, 2005).
In particular, C31 mouse efficacy studies were conducted in order to evaluate anti-neoplastic activity of C31 in vivo. Athymic Nude mice were implanted with HCT116 human colon, SKOV3 human ovarian or OVCAR3 human ovarian cancer cell lines and were treated when the grown tumor xenografts reached at least 150 to 200 mm^3.^1 ^1 Compounds were solubilized in TEP (80% polyethylene glycol (PEG) 400, 10% ethanol, 10% tween-80) in a volume of 50 μL.

A further assay has as its system mitochondrial FAS. The assay can be described thus: 14C-malonate incorporation into mitochondrial fatty acids, mitochondria isolated from rat liver. The assay is classed as biochemical. As to conditions: FIG. 3. As for the experimental part:
Mammalian mitochondrial FAS activity may be determined in a variety of ways. For example, [14C]malonate may be added to isolated mitochondria, fatty acids are extracted, and then radioactivity is tested. (See Zhang et al., J. Bio. Chem. 278(41): 40067-40074, 2003; Mikolajczyk, J. and Brody, S., Eur. J. Biochem. 187: 431-437, 1990). The mitochondria are purified using methods known in the art. (See Qiagen's Qproteome Mitochondria Isolation Kit; Methods in Enzymology, Vol. 10, Chapter 11, 1967). To test the inhibition of mmFAS activity, a test compound is added to the reaction mixture. Therefore, a test compound may be screened according the methods described herein as follows: (i) isolating mitochondria; (ii) incubating mitochondria with [14C]malonate with and without a test compound; and (iii) determining the quantity of lipids and/or fatty acids produced. By comparing the amount of product in the presence of the test compound to the amount in its absence, the degree of inhibition can be determined.
Mitochondria from MCF7 cells were prepared following manufacturer's protocol (Mitochondria Isolation Kit, Sigma, Saint Louis, Mo.). Rat liver mitochondria were isolated by homogenization with a tissue homogenizer in H-medium (220 mM mannitol, 70 mM sucrose, 2 mM HEPES, and 0.5 g/L of fatty acid free bovine serum albumin, pH 7.4). The homogenate was centrifuged at 1100 g for 3 min and washed twice with H-medium. The supernatants were pooled and centrifuged at 6800 g for 15 min. The pellet was then rinsed again and centrifuged at 3000 g for 3 min. The mitochondria supernatants were saved. The sediments were resuspended in H-medium and centrifuged at 3000 g for 3 min. The mitochondria supernatants were combined and centrifuged at 20,000 g for 15 min. The resulting mitochondria pellet were rinsed and centrifuged again at 20,000 g for 20 min.
Isolated mitochondria (100-200 μg) were mixed with 50 mM TES-KOH (pH 7.2), 10 mM MgCl2, 0.3 M sorbitol, 0.1% BSA, 1 mM each of ATP, ADP, NADH, NADPH, CoA, DTT and 1 μCi of [2-^14C]malonic acid (50 mCi/mmol) in a total volume of 200 μl. The reaction was performed for 30 min at room temperature. C31, Riv7d or vehicle were added at the beginning of this reaction. At the end of 30 minutes, the mitochondria pellet was separated from supernatant by centrifugation at 14000 rpm for 5 min. After washing with 500 μl of 50 mM TES-KOH (pH 7.2) and 0.3 M sorbitol, the mitochondria were incubated in 200 μl of H2O and 20 μl of 10 M KOH for 15 min at 65° C. Then the samples were added with 40 μl of 5 M H2SO4 and 20 μl of 1 mM palmitic acid (in 1 M acetic acid in isopropanol). The ^14C labeled fatty acids were twice extracted with hexane and sent to scintillation counting after drying.

The results in this text go back to patent US20140243401A1, “METHODS OF SCREENING COMPOUNDS THAT ARE CYTOTOXIC TO TUMOR CELLS AND METHODS OF TREATING TUMOR CELLS USING SUCH COMPOUND” (The Johns Hopkins University, priority 2010, published 2014).

Converted amounts (≈) assume the structure as drawn.

The IC50 is the concentration at which inhibition is half-maximal. With `CCCCCCCCC1(C)SC(=O)C=C1OCC(=O)Nc1ccc(OC(F)(F)F)cc1` (centres unmarked) [Compound C145], the IC50 in the assay on MCF7 cells was 17.8 µM; in assay [2] it was 1.8 µg/mL (≈ 3.92 µM); in assay [3], 3.3 µg/mL (≈ 7.18 µM); in assay [4], 3.5 µg/mL (≈ 7.62 µM). Also, in assay [1], the “mitochondrial depolarization (JC-1 staining)” value is “depolarization of the mitochondria in the SKOV3 human ovarian cancer cells which is dose-dependent”. Also, the CC50 in assay [2] is 3.9 µM; in assay [3], 7.2 µM; in assay [4] it was 7.6 µM. Also, the “Average Tumor Size Endpoint (% Change)” value in assay [5] (55 mg/kg) was “+236 % Change”.
Turning to `Oc1cc(Cl)ccc1Oc1ccc(Cl)cc1Cl` [Triclosan, triclosan, reference compound], the “IC50, inhibition of mitochondrial FAS (14C-malonate incorporation)” value with mitochondrial FAS (isolated mitochondria) was determined as 3 μg per mL. Besides, in the assay with mitochondrial FAS (mitochondria isolated from rat liver), the “effect on 14C-malonate incorporation into mitochondrial fatty acids” value is listed as “inhibitory effect”.
In the case of `CCCCCCCCC1(C)SC(=O)C=C1OCC(=O)Nc1ccc(C(F)(F)F)cc1` (centres unmarked) [Compound C144], the IC50 is over 5.6 µM with MCF7 cells, 2.2 µg/mL (≈ 4.96 µM) in assay [2], 4 µg/mL (≈ 9.02 µM) in assay [3] and 4.8 µg/mL (≈ 10.8 µM) in assay [4]. In addition, in assay [1], the “mitochondrial depolarization (JC-1 staining)” value is recorded as “depolarization of the mitochondria in the SKOV3 human ovarian cancer cells which is dose-dependent”. Besides, the CC50 in assay [2] is 4.9 µM; in assay [3], 9 µM; in assay [4], 10.8 µM. The “Average Tumor Size Endpoint (% Change)” value in assay [5] (53 mg/kg) is −91 % Change.
